Source: patent US12030877B2, “Prostaglandin E synthase inhibitors and methods for utilizing the same” (University of Kentucky Research Foundation, priority 2016, dated 2024)
Where two headings read alike, the source gives them in different places.

How the values were obtained:
mPGES-1 Mouse enzyme = target: T1, mPGES-1 Mouse enzyme (Mus musculus, UniProt Q9JM51); assay: mPGES-1 enzyme activity assay (PGE2 enzyme immunoassay), mouse enzyme; format: biochemical; settings: for inhibition at 10 µM: compound at a concentration of 10 μM, read-out: % inhibition of the compound against mPGES-1, Mouse enzyme; for IC50: IC50 against mPGES-1, Mouse enzyme, recombinant microsomal enzyme, means ± SD, triplicate
T1 construct: made in house; host or cells: FreeStyle 293-F cells, crude microsomal preparation
T1 sequence (Q9JM51 1-153): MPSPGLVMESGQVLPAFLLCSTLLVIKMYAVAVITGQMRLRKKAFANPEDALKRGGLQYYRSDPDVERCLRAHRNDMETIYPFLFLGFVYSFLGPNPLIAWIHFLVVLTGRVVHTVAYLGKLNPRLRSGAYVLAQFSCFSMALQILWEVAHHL
Protocol: (§1) Studies were conducted to characterize the inhibitory activity against recombinant mPGES-1 of the compounds synthesized in accordance with Examples 1-4, and disclosed herein.
(§2) Briefly, FreeStyle 293-F cells were cultured following manufacturer's manual in FreeStyle 293 expression medium on orbit rotate shaker in 8% CO2 incubator at 37° C. Cells were transfected with 1.5 μg/mL of mPGES-1/pcDNA3 construct using FreeStyle Max reagent at a cell density of 1×10^6 for 2 days. Transfected cells were collected, washed, and sonicated in TSES buffer (15 mM Tris-HCl, pH 8.0 plus 0.25 M sucrose, 0.1 mM EDTA and 1 mM DTT) on ice. The broken cells were first centrifuged at 12,500×g for 10 min. The supernatant was further centrifuged at 105,000×g for 1 hr at 4° C. The pellet was washed and homogenized in PBS buffer. The crude microsomal mPGES-1 preparation was aliquoted and stored at −80° C. The crude protein concentration was 8 mg/mL.
(§3) The enzyme activity assays were performed on ice in 1.5 ml microfuge tubes by using the expressed mPGES-1. The reaction mixture contained: 0.2 M Na2HPO4/NaH2PO4, pH 7.2, 10 μL; 0.1 M GSH, 2.5 μL; diluted microsomal enzyme (80 μg/mL), 1 μL; PGH2 (0.31 mM in DMF), 5 μL; 1 μL inhibitor; and H2O in a final reaction volume of 100 μL. PGH2 was stored in dry ice and used to initiate the reaction.
(§4) Compounds were incubated with the enzyme for 15 min at room temperature before the addition of cold PGH2 (1 μM final) to initiate the enzyme reaction. After 30 s, 10 μL of SnCl2 (40 mg/mL) in ethanol was added to stop the reaction. The nonenzymatic conversion of PGH2 to PGE2 was performed in the same buffer devoid of enzyme. The reaction mixture was placed on ice until PGE2 production was determined by the PGE2 enzyme immunoassay as described earlier. IC50 values of the inhibitors were calculated by using the GraphPad Prism 4.0 program. The results are set forth in the tables provided in Examples 7-10.

mPGES-1 = target: T2, mPGES-1 (Homo sapiens, UniProt O14684); assay: mPGES-1 enzyme activity assay (PGE2 enzyme immunoassay), human enzyme; format: biochemical; set-up: made in house; host or cells: FreeStyle 293-F cells, crude microsomal preparation; settings: recombinant microsomal enzyme, means ± SD, triplicate
T2 sequence (O14684 1-152): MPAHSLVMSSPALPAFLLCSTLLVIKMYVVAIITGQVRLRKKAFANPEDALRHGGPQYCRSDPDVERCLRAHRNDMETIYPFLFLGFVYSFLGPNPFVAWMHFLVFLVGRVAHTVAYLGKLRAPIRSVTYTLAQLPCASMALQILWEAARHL
Protocol: as §1, §2, §3, §4

[1] = read-out: IC50 against mPGES-1, Human enzyme
[2] = IC50 against mPGES-1, Human enzyme

SMILES | inhibition at 10 µM (mPGES-1 Mouse enzyme) [%] | IC50 (mPGES-1; [1]) [nM] | IC50 (mPGES-1 Mouse enzyme) [nM] | IC50 (mPGES-1; [2]) [nM]
O=C1S/C(=C\c2ccc(Oc3cc([N+](=O)[O-])c([N+](=O)[O-])cc3F)c([N+](=O)[O-])c2)C(=O)N1CCCCC1CCCCC1 [IV-01] | 91 | 296 ± 48 | – | –
CCOc1ccc(-c2nn(-c3ccc(Cl)cc3)cc2C=C2C(=O)NC(=O)NC2=O)cc1 [VI-01] | 28 | 265 ± 96 | – | –
CCCCOc1ccc(-c2nn(-c3ccccc3)cc2C=C2C(=O)NC(=O)NC2=O)cc1 [VI-02] | – | 212 ± 34 | 2570 ± 628 | –
CCCCOc1ccc(-c2nn(-c3ccc(Cl)cc3)cc2C=C2C(=O)NC(=O)NC2=O)cc1 [VI-03] | – | 169 ± 41 | 357 ± 75 | –
CCCCCCOc1ccc(-c2nn(-c3ccc(Cl)cc3)cc2C=C2C(=O)NC(=O)NC2=O)cc1 [VI-04] | 46 | 285 ± 65 | – | –
CCCCCCCCOc1ccc(-c2nn(-c3ccccc3)cc2C=C2C(=O)NC(=O)NC2=O)cc1 [VI-05] | – | – | 2160 ± 188 | 323 ± 52
CCCCCCCCOc1ccc(-c2nn(-c3ccc(Cl)cc3)cc2C=C2C(=O)NC(=O)NC2=O)cc1 [VI-06] | – | 361 ± 51 | 740 ± 108 | –
CCCCCCCCCCOc1ccc(-c2nn(-c3ccccc3)cc2C=C2C(=O)NC(=O)NC2=O)cc1 [VI-07] | 21 | – | – | 375 ± 127
CCCCCCCCCCOc1ccc(-c2nn(-c3ccc(Cl)cc3)cc2C=C2C(=O)NC(=O)NC2=O)cc1 [VI-08] | 24 | 294 ± 83 | – | –
O=C1NC(=O)C(=Cc2cn(-c3ccccc3)nc2-c2ccc(OCc3ccccc3)cc2)C(=O)N1 [VI-09] | 0 | – | – | 598 ± 142
CCOc1ccc(-c2nn(-c3ccc(Cl)cc3)cc2C=C2C(=O)NC(=S)NC2=O)cc1 [VI-10] | 46 | 95 ± 16 | – | –
CCCCOc1ccc(-c2nn(-c3ccccc3)cc2C=C2C(=O)NC(=S)NC2=O)cc1 [VI-11] | – | 92 ± 20 | 1260 ± 138 | –
CCCCOc1ccc(-c2nn(-c3ccc(Cl)cc3)cc2C=C2C(=O)NC(=S)NC2=O)cc1 [VI-12] | – | 56 ± 10 | 445 ± 83 | –
CCCCCCOc1ccc(-c2nn(-c3ccc(Cl)cc3)cc2C=C2C(=O)NC(=S)NC2=O)cc1 [VI-13] | – | 52 ± 15 | 1770 ± 1160 | –
CCCCCCCCOc1ccc(-c2nn(-c3ccccc3)cc2C=C2C(=O)NC(=S)NC2=O)cc1 [VI-14] | – | – | 1130 ± 131 | 113 ± 23
CCCCCCCCOc1ccc(-c2nn(-c3ccc(Cl)cc3)cc2C=C2C(=O)NC(=S)NC2=O)cc1 [VI-15] | – | 92 ± 19 | 316 ± 30 | –
CCCCCCCCCCOc1ccc(-c2nn(-c3ccccc3)cc2C=C2C(=O)NC(=S)NC2=O)cc1 [VI-16] | 50 | – | – | 188 ± 31
CCCCCCCCCCOc1ccc(-c2nn(-c3ccc(Cl)cc3)cc2C=C2C(=O)NC(=S)NC2=O)cc1 [VI-17] | 56 | 93 ± 14 | – | –
O=C1NC(=S)NC(=O)C1=Cc1cn(-c2ccccc2)nc1-c1ccc(OCc2ccccc2)cc1 [VI-18] | 25 | – | – | 797 ± 160
CCOc1ccc(-c2nn(-c3ccc(Cl)cc3)cc2/C=C2\SC(=O)N(CC(=O)O)C2=O)cc1 [VII-10] | 35 | 41 ± 5 | – | –
CCCCCCOc1ccc(-c2nn(-c3ccc(Cl)cc3)cc2/C=C2\SC(=O)N(CC(=O)O)C2=O)cc1 [VII-11] | 37 | 36 ± 11 | – | –
CCOc1ccc(-c2nn(-c3ccc(Cl)cc3)cc2/C=C(/C#N)C(=O)O)cc1 [VII-12] | 12 | 282 ± 83 | – | –
CCCCOc1ccc(-c2nn(-c3ccccc3)cc2/C=C(/C#N)C(=O)O)cc1 [VII-13] | 21 | 296 ± 68 | – | –
CCCCOc1ccc(-c2nn(-c3ccc(Cl)cc3)cc2/C=C(/C#N)C(=O)O)cc1 [VII-14] | 30 | 190 ± 68 | – | –
